Assay [1] deals with T1, Alpha-1A adrenergic receptor (Rattus norvegicus, UniProt P43140).
T1 sequence (P43140 whole entry): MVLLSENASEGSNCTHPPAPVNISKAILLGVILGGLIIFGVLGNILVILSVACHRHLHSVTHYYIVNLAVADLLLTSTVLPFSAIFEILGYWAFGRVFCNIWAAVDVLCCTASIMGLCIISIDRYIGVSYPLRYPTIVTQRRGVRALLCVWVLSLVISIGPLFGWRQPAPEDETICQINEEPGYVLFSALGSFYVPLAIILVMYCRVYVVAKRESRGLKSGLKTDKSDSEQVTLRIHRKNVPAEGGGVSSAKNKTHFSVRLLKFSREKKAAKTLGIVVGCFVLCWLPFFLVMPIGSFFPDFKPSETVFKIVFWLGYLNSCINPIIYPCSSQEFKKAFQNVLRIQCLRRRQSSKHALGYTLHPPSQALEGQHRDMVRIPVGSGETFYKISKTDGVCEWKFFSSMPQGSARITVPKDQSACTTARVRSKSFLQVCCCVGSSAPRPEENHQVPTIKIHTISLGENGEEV
The assay can be described thus: DRUGMATRIX: Alpha-1A adrenergic receptor radioligand binding (ligand: prazosin). The format is cell membranes, Wistar, Submaxillary gland, Membrane. As to conditions: Not Active = under 50% inhibition at 10 µM.

For assay [2], the target named is Insulin receptor (Rattus norvegicus, UniProt P15127). The format is cell membranes, Wistar, Liver, Membrane. Note: in other assays of this panel Not Active means under 50% inhibition at 10 µM.
Assay [3] concerns the target T2, Substance-K receptor (Homo sapiens, UniProt P21452). Note: in other assays of this panel Not Active means under 50% inhibition at 10 µM.
T2 sequence (P21452 whole entry): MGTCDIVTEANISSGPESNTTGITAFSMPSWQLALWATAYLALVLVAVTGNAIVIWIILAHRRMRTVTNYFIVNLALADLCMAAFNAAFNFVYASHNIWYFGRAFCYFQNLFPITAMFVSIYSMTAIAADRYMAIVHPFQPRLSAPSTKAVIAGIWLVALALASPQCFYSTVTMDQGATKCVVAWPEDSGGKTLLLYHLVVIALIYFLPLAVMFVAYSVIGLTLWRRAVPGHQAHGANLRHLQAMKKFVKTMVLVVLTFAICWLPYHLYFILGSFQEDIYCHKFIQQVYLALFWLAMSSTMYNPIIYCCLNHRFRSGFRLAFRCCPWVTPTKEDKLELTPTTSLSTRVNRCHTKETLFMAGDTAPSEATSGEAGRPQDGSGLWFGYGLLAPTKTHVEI
Format: cell membranes, CHO, Membrane.

Assay [4] concerns the target Mitogen-activated protein kinase 14 (Homo sapiens, UniProt Q16539). The arrangement: species or system Escherichia coli.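 Note: inhibition of p38alpha enzyme activity in a biochemical kinase assay, with myelin basic protein serving as substrate; in other assays of this panel Not Active means under 50% inhibition at 10 µM.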
For assay [5], the target named is Melanocortin receptor 3 (Homo sapiens, UniProt P41968). The format is cell membranes, HEK293, Membrane. As to conditions: hek293. Note: in other assays of this panel Not Active means under 50% inhibition at 10 µM.
Assay [6] can be described thus: DRUGMATRIX: Nicotinic Acetylcholine radioligand binding (ligand: [125I] Epibatidine). Format: cell membranes, Membrane. As to conditions: imr-32; Not Active = under 50% inhibition at 10 µM.

Chain of Melanocortin receptor 3 (P41968 whole entry): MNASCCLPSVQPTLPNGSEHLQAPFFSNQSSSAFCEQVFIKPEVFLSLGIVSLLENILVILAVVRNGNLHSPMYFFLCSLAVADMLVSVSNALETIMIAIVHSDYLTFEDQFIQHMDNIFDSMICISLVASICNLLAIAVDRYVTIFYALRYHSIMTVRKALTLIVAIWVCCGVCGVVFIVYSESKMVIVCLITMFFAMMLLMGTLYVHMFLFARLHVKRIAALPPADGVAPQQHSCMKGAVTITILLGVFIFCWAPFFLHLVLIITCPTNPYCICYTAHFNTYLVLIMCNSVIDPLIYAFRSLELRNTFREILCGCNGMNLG
Chain of Insulin receptor (P15127 27-759 limits assumed): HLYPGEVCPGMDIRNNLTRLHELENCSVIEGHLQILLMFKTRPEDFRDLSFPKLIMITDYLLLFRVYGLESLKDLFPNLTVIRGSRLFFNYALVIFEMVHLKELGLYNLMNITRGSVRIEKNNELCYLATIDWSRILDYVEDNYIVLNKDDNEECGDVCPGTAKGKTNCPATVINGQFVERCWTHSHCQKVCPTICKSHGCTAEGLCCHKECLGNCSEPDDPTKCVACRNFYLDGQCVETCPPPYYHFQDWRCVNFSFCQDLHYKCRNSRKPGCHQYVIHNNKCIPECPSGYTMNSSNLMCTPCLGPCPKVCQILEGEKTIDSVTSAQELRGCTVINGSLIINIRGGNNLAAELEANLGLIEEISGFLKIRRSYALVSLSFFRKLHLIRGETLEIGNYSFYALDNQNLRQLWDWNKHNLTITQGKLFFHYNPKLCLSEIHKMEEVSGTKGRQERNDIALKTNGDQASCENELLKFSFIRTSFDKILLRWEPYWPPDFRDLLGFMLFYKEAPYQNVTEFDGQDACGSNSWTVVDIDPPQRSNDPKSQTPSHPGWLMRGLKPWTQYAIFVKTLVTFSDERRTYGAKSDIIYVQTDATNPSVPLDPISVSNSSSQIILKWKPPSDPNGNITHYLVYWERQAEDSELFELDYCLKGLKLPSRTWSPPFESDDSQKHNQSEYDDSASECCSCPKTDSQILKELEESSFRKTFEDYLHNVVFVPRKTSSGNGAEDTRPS
Chain of Insulin receptor (P15127 764-1383 limits assumed): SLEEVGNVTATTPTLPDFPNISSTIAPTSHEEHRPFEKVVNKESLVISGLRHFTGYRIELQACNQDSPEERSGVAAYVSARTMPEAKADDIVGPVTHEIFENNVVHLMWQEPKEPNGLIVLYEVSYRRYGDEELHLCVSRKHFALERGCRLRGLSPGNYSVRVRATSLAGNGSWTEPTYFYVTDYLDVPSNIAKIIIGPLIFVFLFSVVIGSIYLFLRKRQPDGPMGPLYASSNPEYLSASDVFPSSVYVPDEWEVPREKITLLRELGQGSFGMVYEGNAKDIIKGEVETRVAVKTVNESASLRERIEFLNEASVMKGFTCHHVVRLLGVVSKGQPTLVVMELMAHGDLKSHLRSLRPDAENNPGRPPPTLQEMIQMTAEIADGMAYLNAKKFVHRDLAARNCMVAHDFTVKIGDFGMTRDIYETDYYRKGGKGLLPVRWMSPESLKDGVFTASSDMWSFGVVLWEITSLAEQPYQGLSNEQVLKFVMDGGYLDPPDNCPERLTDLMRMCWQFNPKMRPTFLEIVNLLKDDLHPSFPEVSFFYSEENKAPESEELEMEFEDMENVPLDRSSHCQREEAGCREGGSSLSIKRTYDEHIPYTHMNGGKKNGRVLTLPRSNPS
Chain of Mitogen-activated protein kinase 14 (Q16539 whole entry): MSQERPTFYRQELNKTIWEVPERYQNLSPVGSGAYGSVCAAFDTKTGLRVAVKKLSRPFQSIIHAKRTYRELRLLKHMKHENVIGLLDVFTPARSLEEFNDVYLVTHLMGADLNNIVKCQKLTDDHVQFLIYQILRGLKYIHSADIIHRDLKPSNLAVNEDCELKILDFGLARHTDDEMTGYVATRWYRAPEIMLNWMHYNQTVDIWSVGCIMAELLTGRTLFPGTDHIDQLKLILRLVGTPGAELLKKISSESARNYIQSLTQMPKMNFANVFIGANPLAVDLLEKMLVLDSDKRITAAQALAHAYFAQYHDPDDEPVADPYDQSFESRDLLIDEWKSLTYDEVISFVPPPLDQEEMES

`CN1C[C@H](CNC(=O)OCc2ccccc2)C[C@@H]2c3cccc4c3c(cn4C)C[C@H]21` [METERGOLINE]: the IC50 in assay [1] (read-out: IC50) is 95 nM; in assay [2], “Not Active”; in assay [3] (read-out: IC50), 4070 nM; in assay [4], “Not Active”; in assay [5] it was “Not Active”; in assay [6] it was “Not Active”. Moreover, the Ki in assay [1] (read-out: Ki) is 38 nM; in assay [3] (read-out: Ki) it was 1360 nM; in assay [6] it was “Not Active”.

For the compound `Oc1ccc(/C=C/c2cc(O)cc(O)c2)cc1` [RESVERATROL], the IC50 result in assay [1], in assay [2], in assay [3] (cho), in assay [4], in assay [5] and in assay [6] was “Not Active” throughout. Moreover, the Ki result in assay [6] was “Not Active”.

As for `CC1=C(/C=C/C(C)=C/C=C/C(C)=C/C(=O)O)C(C)(C)CCC1` [TRETINOIN], the IC50 entry in assay [1], in assay [2], in assay [3] (cho), in assay [4], in assay [5] and in assay [6] was “Not Active” throughout. The Ki result in assay [6] is listed as “Not Active”.

`CC[C@@]1(O)C(=O)OCc2c1cc1n(c2=O)Cc2cc3c(CN(C)C)c(O)ccc3nc2-1` [TOPOTECAN]: the IC50 result in assay [1], in assay [2], in assay [3] (cho), in assay [4], in assay [5] and in assay [6] was “Not Active” each time. For the same compound, the Ki entry in assay [6] was “Not Active”.

Regarding `O=C(OC[C@H]1O[C@@H](OC(=O)c2cc(O)c(O)c(OC(=O)c3cc(O)c(O)c(O)c3)c2)[C@H](OC(=O)c2cc(O)c(O)c(OC(=O)c3cc(O)c(O)c(O)c3)c2)[C@@H](OC(=O)c2cc(O)c(O)c(OC(=O)c3cc(O)c(O)c(O)c3)c2)[C@@H]1OC(=O)c1cc(O)c(O)c(OC(=O)c2cc(O)c(O)c(O)c2)c1)c1cc(O)c(O)c(OC(=O)c2cc(O)c(O)c(O)c2)c1` [TANNIC ACID], the IC50 entry in assay [1] is “Not Active”; in assay [2], “Not Active”; in assay [3] (cho), “Not Active”; in assay [4] (read-out: IC50) it was 375 nM; in assay [5] it was “Not Active”; in assay [6], “Not Active”. For the same compound, in assay [6], the Ki entry was “Not Active”.

`CC(Cl)(Cl)Cl` [TRICHLOROETHANE]: the IC50 entry in assay [1], in assay [2], in assay [3] (cho), in assay [4], in assay [5] and in assay [6] was “Not Active” each time. For the same compound, the Ki result in assay [6] was “Not Active”.

With `C=CCc1ccc2c(c1)OCO2` [SAFROLE], the IC50 result in assay [1], in assay [2], in assay [3] (cho), in assay [4], in assay [5] and in assay [6] was “Not Active” in each case. Besides, the Ki entry in assay [6] is given as “Not Active”.

Regarding `O=C1CC[C@@]2(O)[C@H]3Cc4ccc(O)c5c4[C@@]2(CCN3CC2CC2)[C@H]1O5` [NALTREXONE], the IC50 result in assay [1], in assay [2], in assay [3] (cho), in assay [4], in assay [5] and in assay [6] was “Not Active” each time. In assay [6], the Ki entry is “Not Active”.

`CN1C(=O)OC(C)(C)C1=O` [TRIMETHADIONE]: the IC50 result in assay [1], in assay [2], in assay [3] (cho), in assay [4], in assay [5] and in assay [6] was “Not Active” in each case. The Ki entry in assay [6] is on record as “Not Active”.

Regarding `CC(O)C(=O)O` (stereo unspecified) [LACTIC ACID], the IC50 entry in assay [1], in assay [2], in assay [3] (cho), in assay [4], in assay [5] and in assay [6] was “Not Active” throughout. Further, the inhibition constant (Ki) result in assay [6] was “Not Active”.

Consider `CS(=O)(=O)c1ccc(C2=C(c3ccccc3)C(=O)OC2)cc1` [ROFECOXIB], for which the IC50 entry in assay [1], in assay [2], in assay [3] (cho), in assay [4], in assay [5] and in assay [6] was “Not Active” each time. Besides, in assay [6], the Ki result was “Not Active”.

As to `C[N+]1(C)[C@@H]2C[C@@H](OC(=O)[C@H](CO)c3ccccc3)C[C@H]1[C@@H]1O[C@@H]12.[Br-]` [METHSCOPOLAMINE BROMIDE], the IC50 result in assay [1], in assay [2], in assay [3] (cho), in assay [4], in assay [5] and in assay [6] was “Not Active” throughout. Further, in assay [6], the Ki entry is given as “Not Active”.

As for `Cc1nnc(NS(=O)(=O)c2ccc(N)cc2)s1` [SULFAMETHIZOLE], the IC50 entry in assay [1], in assay [2], in assay [3] (cho), in assay [4], in assay [5] and in assay [6] was “Not Active” each time. Further, the Ki entry in assay [6] is “Not Active”.

With `CC(=O)O[C@]1(C(C)=O)CC[C@H]2[C@@H]3C[C@H](C)C4=CC(=O)CC[C@]4(C)[C@H]3CC[C@@]21C` [MEDROXYPROGESTERONE ACETATE], the IC50 result in assay [1], in assay [2], in assay [3] (cho), in assay [4], in assay [5] and in assay [6] was “Not Active” throughout. The Ki entry in assay [6] was “Not Active”.

As to `CC1(C)[C@H](C(=O)O)N2C(=O)C[C@H]2S1(=O)=O` [SULBACTAM], the IC50 result in assay [1], in assay [2], in assay [3] (cho), in assay [4], in assay [5] and in assay [6] was “Not Active” throughout. Moreover, the Ki result in assay [6] is reported as “Not Active”.

Turning to `O=C(O)c1cc(/N=N/c2ccc(S(=O)(=O)Nc3ccccn3)cc2)ccc1O` [SULFASALAZINE], the IC50 result in assay [1], in assay [2], in assay [3] (cho), in assay [4], in assay [5] and in assay [6] was “Not Active” each time. For the same compound, the Ki result in assay [6] is “Not Active”.

Consider `CCN(CC)CCNC(=O)c1cc(Cl)c(N)cc1OC` [METOCLOPRAMIDE], for which the IC50 entry in assay [1], in assay [2], in assay [3] (cho), in assay [4], in assay [5] and in assay [6] was “Not Active” in each case. The Ki entry in assay [6] is given as “Not Active”.

On to `COC(=O)Nc1nc2ccc(C(=O)c3ccccc3)cc2[nH]1` [MEBENDAZOLE], for which the IC50 entry in assay [1], in assay [2], in assay [3] (cho), in assay [4], in assay [5] and in assay [6] was “Not Active” each time. Also, the Ki entry in assay [6] was “Not Active”.

For the compound `Cc1ccnc(NS(=O)(=O)c2ccc(N)cc2)n1` [SULFAMERAZINE], the IC50 result in assay [1], in assay [2], in assay [3] (cho), in assay [4], in assay [5] and in assay [6] was “Not Active” in each case. In addition, the Ki result in assay [6] is “Not Active”.

For the compound `Cc1cccc(C)c1NC(=O)C(C)N` (stereo unspecified) [TOCAINIDE], the IC50 result in assay [1], in assay [2], in assay [3] (cho), in assay [4], in assay [5] and in assay [6] was “Not Active” each time. For the same compound, the Ki result in assay [6] is on record as “Not Active”.

For `CC#C[C@]1(O)CC[C@H]2[C@@H]3CCC4=CC(=O)CCC4=C3[C@@H](c3ccc(N(C)C)cc3)C[C@@]21C` [MIFEPRISTONE], the IC50 result in assay [1] was “Not Active”; in assay [2] it was “Not Active”; in assay [3] (cho) it was “Not Active”; in assay [4] (read-out: IC50), 83100 nM; in assay [5], “Not Active”; in assay [6] it was “Not Active”. For the same compound, in assay [6], the Ki result is listed as “Not Active”.

For the compound `C[C@]12CCC(=O)C[C@@H]1CC[C@@H]1[C@@H]2CC[C@]2(C)[C@@H](O)CC[C@@H]12` [STANOLONE], the IC50 entry in assay [1], in assay [2], in assay [3] (cho), in assay [4], in assay [5] and in assay [6] was “Not Active” in each case. Also, the Ki entry in assay [6] is given as “Not Active”.

For the origin of these results see ChEMBL document CHEMBL1909046, “DrugMatrix in vitro pharmacology data”.
